pIC50: −log10 of the molar value.

For test [1], the target named is T1, Glucocorticoid receptor (Homo sapiens, UniProt P04150).
T1 sequence (P04150 whole entry): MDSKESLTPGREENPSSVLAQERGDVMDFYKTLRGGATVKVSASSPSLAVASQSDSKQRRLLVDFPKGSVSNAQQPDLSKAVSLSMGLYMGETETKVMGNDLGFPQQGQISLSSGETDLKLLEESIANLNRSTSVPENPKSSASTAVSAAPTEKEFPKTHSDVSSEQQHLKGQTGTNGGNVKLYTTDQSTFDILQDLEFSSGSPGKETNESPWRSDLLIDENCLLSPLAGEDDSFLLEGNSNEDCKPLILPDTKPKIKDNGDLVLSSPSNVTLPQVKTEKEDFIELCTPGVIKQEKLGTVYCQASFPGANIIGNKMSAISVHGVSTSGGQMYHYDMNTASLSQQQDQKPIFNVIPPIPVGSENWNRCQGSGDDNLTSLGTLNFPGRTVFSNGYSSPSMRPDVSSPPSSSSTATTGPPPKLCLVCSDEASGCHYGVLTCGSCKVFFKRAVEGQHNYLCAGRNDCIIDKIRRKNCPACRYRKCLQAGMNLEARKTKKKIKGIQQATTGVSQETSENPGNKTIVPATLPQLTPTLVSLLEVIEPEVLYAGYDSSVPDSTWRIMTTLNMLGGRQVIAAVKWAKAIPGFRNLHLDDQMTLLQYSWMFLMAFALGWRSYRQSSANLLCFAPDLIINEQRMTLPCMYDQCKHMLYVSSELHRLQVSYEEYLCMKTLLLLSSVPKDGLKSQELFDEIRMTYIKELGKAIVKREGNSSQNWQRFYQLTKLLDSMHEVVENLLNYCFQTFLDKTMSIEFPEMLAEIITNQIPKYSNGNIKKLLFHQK

Test [2] concerns the target T2, Progesterone receptor (Homo sapiens, UniProt P06401).
T2 sequence (P06401 whole entry): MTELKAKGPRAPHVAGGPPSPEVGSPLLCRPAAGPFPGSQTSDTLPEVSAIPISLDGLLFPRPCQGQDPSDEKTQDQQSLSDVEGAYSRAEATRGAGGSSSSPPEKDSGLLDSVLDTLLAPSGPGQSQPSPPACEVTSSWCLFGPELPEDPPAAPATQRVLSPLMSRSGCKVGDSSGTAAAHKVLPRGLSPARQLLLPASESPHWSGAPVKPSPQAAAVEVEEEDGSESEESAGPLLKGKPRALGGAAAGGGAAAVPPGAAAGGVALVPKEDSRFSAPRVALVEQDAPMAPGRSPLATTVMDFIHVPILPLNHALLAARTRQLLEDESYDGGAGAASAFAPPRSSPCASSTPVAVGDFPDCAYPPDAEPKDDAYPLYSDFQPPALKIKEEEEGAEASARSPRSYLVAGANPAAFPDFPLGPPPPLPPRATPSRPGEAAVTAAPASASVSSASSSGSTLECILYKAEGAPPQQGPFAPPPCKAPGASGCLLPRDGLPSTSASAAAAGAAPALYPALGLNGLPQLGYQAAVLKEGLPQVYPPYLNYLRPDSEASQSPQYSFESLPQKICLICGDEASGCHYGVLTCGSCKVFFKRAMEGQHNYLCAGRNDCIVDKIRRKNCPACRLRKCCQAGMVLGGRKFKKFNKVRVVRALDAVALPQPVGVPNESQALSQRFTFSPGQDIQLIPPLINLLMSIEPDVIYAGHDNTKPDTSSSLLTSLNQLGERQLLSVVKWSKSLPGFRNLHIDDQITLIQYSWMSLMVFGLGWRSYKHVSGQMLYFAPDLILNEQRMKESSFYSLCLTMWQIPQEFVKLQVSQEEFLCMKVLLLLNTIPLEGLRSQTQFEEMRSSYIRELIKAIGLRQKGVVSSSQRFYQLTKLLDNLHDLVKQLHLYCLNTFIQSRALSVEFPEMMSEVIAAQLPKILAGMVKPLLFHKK
Nature of the test: Inhibition of human PR.

In test [3] the target is T3, Mineralocorticoid receptor (Homo sapiens, UniProt P08235).
T3 sequence (P08235 whole entry): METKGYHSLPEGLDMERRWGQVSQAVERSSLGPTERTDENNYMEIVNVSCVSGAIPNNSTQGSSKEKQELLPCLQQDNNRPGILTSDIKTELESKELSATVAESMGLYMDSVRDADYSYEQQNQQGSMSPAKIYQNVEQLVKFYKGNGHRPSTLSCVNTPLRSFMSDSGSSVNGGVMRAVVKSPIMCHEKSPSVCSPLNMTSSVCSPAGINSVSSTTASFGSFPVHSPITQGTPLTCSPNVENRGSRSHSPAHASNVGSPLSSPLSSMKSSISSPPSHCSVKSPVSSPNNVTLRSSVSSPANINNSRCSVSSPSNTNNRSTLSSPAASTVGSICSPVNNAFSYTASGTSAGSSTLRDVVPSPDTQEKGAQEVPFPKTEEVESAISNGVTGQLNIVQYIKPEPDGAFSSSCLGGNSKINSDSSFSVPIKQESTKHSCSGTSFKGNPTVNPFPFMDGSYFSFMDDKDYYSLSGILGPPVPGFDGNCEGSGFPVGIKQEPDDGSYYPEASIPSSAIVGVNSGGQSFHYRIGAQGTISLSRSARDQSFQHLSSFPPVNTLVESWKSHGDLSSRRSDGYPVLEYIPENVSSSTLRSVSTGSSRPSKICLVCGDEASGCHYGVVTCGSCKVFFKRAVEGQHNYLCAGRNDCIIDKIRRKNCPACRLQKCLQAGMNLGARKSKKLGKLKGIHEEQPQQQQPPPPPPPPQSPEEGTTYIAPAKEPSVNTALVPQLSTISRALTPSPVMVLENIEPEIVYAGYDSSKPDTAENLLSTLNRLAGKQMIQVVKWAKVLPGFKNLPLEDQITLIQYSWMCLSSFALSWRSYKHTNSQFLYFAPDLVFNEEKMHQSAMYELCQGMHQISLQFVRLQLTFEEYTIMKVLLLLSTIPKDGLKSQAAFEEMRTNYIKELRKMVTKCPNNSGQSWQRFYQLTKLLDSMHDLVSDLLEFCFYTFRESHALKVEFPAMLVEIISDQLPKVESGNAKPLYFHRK
Nature of the test: Inhibition of human MR.

The species entered for test [4] is Homo sapiens. Nature of the test: Selectivity for human glucocorticoid receptor over human mineralocorticoid receptor.

Broadly, the pIC50 is −log10 of the IC50, conventionally taken in molar units. Lower therefore signals a high IC50. In test [1], `Cc1cc(C)c(S(=O)(=O)NC(C)Cc2cc3ccccc3[nH]2)c(C)c1` (configuration not stated) gave a negative-log IC50 (pIC50) below 5.70.
In test [1], `Cc1cc(C)c(S(=O)(=O)NCCc2c[nH]c3ccccc23)c(C)c1` had a pIC50 below 5.70.
The same measure, in the same setting: as for `CC(Cc1c[nH]c2ccccc12)NS(=O)(=O)c1ccccc1Cl` (configuration not stated), the figure is 5.39.
As for `CC(Cc1c[nH]c2ccccc12)NS(=O)(=O)c1c(C(C)C)cc(C(C)C)cc1C(C)C` (configuration not stated), the negative logarithm of the IC50 (pIC50) in test [2] was below 5.70; in test [3], below 5.70; in test [1], 7.17.
Compound `COc1ccc2[nH]cc(CC(C)NS(=O)(=O)c3c(Cl)cc(Cl)cc3Cl)c2c1` (configuration not stated) showed a negative-log IC50 (pIC50) in test [1] below 5.70.
As to `CC(Cc1c[nH]c2ccccc12)NS(=O)(=O)c1cc(Cl)c(Cl)cc1Cl` (configuration not stated), the negative-log IC50 (pIC50) was 6.36 in test [2], 6.00 in test [3] and 6.00 in test [1].
As for `CC(Cc1c[nH]c2ccccc12)NS(=O)(=O)c1ccc(Cl)cc1` (configuration not stated), in test [1], the pIC50 is 5.68.
The same measure, in the same setting: as for `CC(Cc1c[nH]c2ccccc12)NS(=O)(=O)c1ccccc1[N+](=O)[O-]` (configuration not stated), the figure is below 5.00; as for `Cc1c(Cl)cccc1S(=O)(=O)NC(C)Cc1c[nH]c2ccccc12` (configuration not stated), 6.09; as for `CC(Cc1c[nH]c2ccccc12)NC(=O)Nc1c(Cl)cc(Cl)cc1Cl` (configuration not stated), below 5.70.
Still for that read-out and setting: as for `CC(Cc1cn(C)c2ccccc12)NS(=O)(=O)c1c(Cl)cc(Cl)cc1Cl` (configuration not stated), the figure is below 5.70; as for `Cc1cc(C)c(S(=O)(=O)NC(CO)Cc2c[nH]c3ccccc23)c(C)c1` (configuration not stated), below 5.70.
Still for that read-out and setting: as for `CC(Cc1c[nH]c2ccccc12)NS(=O)(=O)c1cc(F)c(Br)cc1F` (configuration not stated), the figure is 5.44; as for `CC(Cc1c[nH]c2ccccc12)NS(=O)(=O)c1cc(Cl)ccc1Cl` (configuration not stated), 5.89; as for `CC(Cc1c[nH]c2ccccc12)NS(=O)(=O)c1ccc([N+](=O)[O-])cc1` (configuration not stated), below 5.00.
`CC(Cc1c[nH]c2ccccc12)NS(=O)(=O)c1ccc(Cl)c(Cl)c1` (configuration not stated) gave a negative-log IC50 (pIC50) in test [1] of 5.16.
Still for that read-out and setting: for `Cc1cc(C)c(S(=O)(=O)NC(C)Cc2c[nH]c3cc(C)ccc23)c(C)c1` (configuration not stated) the value was 6.31; for `Cc1cccc(Cl)c1S(=O)(=O)NC(C)Cc1c[nH]c2ccccc12` (configuration not stated), 6.55; for `CCC(Cc1c[nH]c2ccccc12)NS(=O)(=O)c1c(Cl)cc(Cl)cc1Cl` (configuration not stated), 7.19.
The compound `Cc1cc(C)c(C(=O)NC(C)Cc2c[nH]c3ccccc23)c(C)c1` (configuration not stated) showed a negative logarithm of the IC50 (pIC50) in test [1] below 5.70.
Regarding `CC(Cc1c[nH]c2ccccc12)NS(=O)(=O)c1cc(Cl)cc(Cl)c1` (configuration not stated), the pIC50 in test [1] was 5.34.
Same read-out and setting: for `COC(=O)[C@@H](Cc1c[nH]c2ccccc12)NS(=O)(=O)c1c(C)cc(C)cc1C` the value was below 5.70; for `CCCc1ccc(S(=O)(=O)NC(C)Cc2c[nH]c3ccccc23)cc1` (configuration not stated), 5.80.
Regarding `Cc1cc(C)c(S(=O)(=O)NC(C)Cc2c[nH]c3c(C)cccc23)c(C)c1` (configuration not stated), the pIC50 in test [1] is 6.92. This pIC50 lies 1.12 log units higher than the previous one.
Same read-out and setting: for `CC(Cc1c[nH]c2ccccc12)NS(=O)(=O)c1ccccc1` (configuration not stated) the value was below 5.00.
Compound `COC(=O)[C@H](Cc1c[nH]c2ccccc12)NS(=O)(=O)c1c(C)cc(C)cc1C` showed a negative-log IC50 (pIC50) in test [1] below 5.70.
Turning to `CC(Cc1c[nH]c2ccccc12)NS(=O)(=O)c1ccc(Cl)cc1Cl` (configuration not stated), the negative-log IC50 (pIC50) in test [2] is below 5.70; in test [3], 6.07; in test [1], 6.32.
`Cc1cc(C)c(S(=O)(=O)NC(C)Cc2c[nH]c3cc(F)ccc23)c(C)c1` (configuration not stated) had a pIC50 in test [1] of 7.10.
Same read-out and setting: as for `Cc1cc(C)c(CNC(C)Cc2c[nH]c3ccccc23)c(C)c1` (configuration not stated), the figure is below 5.70; as for `CC(Cc1c[nH]c2ccccc12)NS(=O)(=O)c1cccc(Cl)c1Cl` (configuration not stated), 5.92; as for `Cc1cc(S(=O)(=O)NC(C)Cc2c[nH]c3ccccc23)c(C)cc1Cl` (configuration not stated), 5.74.
On the same count and under the same terms, as for `Cc1cccc(S(=O)(=O)NC(C)Cc2c[nH]c3ccccc23)c1` (configuration not stated), the figure is below 5.00.
`CC(Cc1c[nH]c2ccccc12)NS(=O)(=O)c1ccc(Cl)c(Cl)c1Cl` (configuration not stated): in test [1], the pIC50 was 5.72.
Same read-out and setting: as for `Cc1cc(C)c(S(=O)(=O)N(C)C(C)Cc2c[nH]c3ccccc23)c(C)c1` (configuration not stated), the figure is 5.89.
Regarding `CC(Cc1c[nH]c2ccccc12)NS(=O)(=O)c1c(Cl)cccc1Cl` (configuration not stated), the Ratio IC50 in test [4] was 6. Further, the negative-log IC50 (pIC50) was 6.77 in test [2], 5.80 in test [3] and 6.62 in test [1].
Regarding `CC(Cc1c[nH]c2ccccc12)NS(=O)(=O)c1ccc(C(C)C)cc1` (configuration not stated), the pIC50 in test [2] is 6.00; in test [3], 5.85; in test [1], 6.12.
`CC(Cc1c[nH]c2ccccc12)NS(=O)(=O)c1cc(Cl)cc(Cl)c1O` (configuration not stated) showed a negative-log IC50 (pIC50) in test [1] below 5.00.
Regarding `Cc1ccc(S(=O)(=O)NC(C)Cc2c[nH]c3ccccc23)cc1` (configuration not stated), the negative-log IC50 (pIC50) in test [1] is 5.24.
Same read-out and setting: as for `CC(Cc1c[nH]c2ccccc12)NS(=O)(=O)c1cccc(C#N)c1` (configuration not stated), the figure is below 5.00.
On to `Cc1cc(C)c(S(=O)(=O)N[C@@H](C)Cc2c[nH]c3ccccc23)c(C)c1`, for which the Ratio IC50 in test [4] worked out at 34. Also, the pIC50 is 5.92 in test [2], 6.00 in test [3] and 7.54 in test [1].
In test [1], `Cc1cc(C)c(S(=O)(=O)NC(C)Cc2c[nH]c3ccc(F)cc23)c(C)c1` (configuration not stated) showed a negative logarithm of the IC50 (pIC50) of 7.19.
Same read-out and setting: for `Cc1[nH]c2ccccc2c1CC(C)NS(=O)(=O)c1c(Cl)cc(Cl)cc1Cl` (configuration not stated) the value was 6.24.
As to `CC(Cc1c[nH]c2ccccc12)NS(=O)(=O)c1ccc(C(C)(C)C)cc1` (configuration not stated), the negative-log IC50 (pIC50) in test [2] is below 5.70; in test [3], 5.97; in test [1] it was 6.13.
`COc1ccc(S(=O)(=O)NC(C)Cc2c[nH]c3ccccc23)cc1` (configuration not stated) showed a pIC50 in test [1] below 5.00.
For the compound `C[C@@H]1C[C@H]2[C@@H]3CCC4=CC(=O)C=C[C@]4(C)[C@@]3(F)[C@@H](O)C[C@]2(C)[C@@]1(O)C(=O)CO` [DEXAMETHASONE], in test [2], the pIC50 is below 5.70.
In the case of `CC(Cc1c[nH]c2ccccc12)NS(=O)(=O)c1ccc(-c2ccccc2)cc1` (configuration not stated), the pIC50 in test [1] was 5.59.
Consider `Cc1cc(C)c(S(=O)(=O)N[C@H](C)Cc2c[nH]c3ccccc23)c(C)c1`, for which the pIC50 in test [2] is below 5.70; in test [3] it was 6.28; in test [1], below 5.70.
Turning to `CC(Cc1c[nH]c2ccccc12)NS(=O)(=O)c1cccc(Cl)c1` (configuration not stated), in test [1], the negative logarithm of the IC50 (pIC50) was 5.39.
The same measure, in the same setting: as for `CC(=O)Nc1ccc(S(=O)(=O)NC(C)Cc2c[nH]c3ccccc23)cc1` (configuration not stated), the figure is below 5.00.

(Values after ChEMBL document CHEMBL1146304, “Alpha-methyltryptamine sulfonamide derivatives as novel glucocorticoid receptor ligands” (Bioorg Med Chem Lett, 2007).)
